In general, IC50 refers to the point on the concentration scale where inhibition reaches its midpoint.

Calls of active or inactive are those of the source.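 How the source made its calls: active means maximal percent inhibition of the deubiquitinase OTUD3 of at least 30% across the tested doses; inactive means the rest.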

The assay deals with OTU domain-containing protein 3 (Homo sapiens) (UniProt Q5T2D3). As to the kind of experiment: Validation of screening hits, potency titration, in vitro enzymatic, OTU domain-containing protein 3 DUB inhibitors (AID 1645868). To be noted: purified OTUD3, ubiquitin-rhodamine cleavage fluorescence, 2 h.
OTU domain-containing protein 3 (Homo sapiens), sequence (Q5T2D3 whole entry, looked up, the tested form may be a part): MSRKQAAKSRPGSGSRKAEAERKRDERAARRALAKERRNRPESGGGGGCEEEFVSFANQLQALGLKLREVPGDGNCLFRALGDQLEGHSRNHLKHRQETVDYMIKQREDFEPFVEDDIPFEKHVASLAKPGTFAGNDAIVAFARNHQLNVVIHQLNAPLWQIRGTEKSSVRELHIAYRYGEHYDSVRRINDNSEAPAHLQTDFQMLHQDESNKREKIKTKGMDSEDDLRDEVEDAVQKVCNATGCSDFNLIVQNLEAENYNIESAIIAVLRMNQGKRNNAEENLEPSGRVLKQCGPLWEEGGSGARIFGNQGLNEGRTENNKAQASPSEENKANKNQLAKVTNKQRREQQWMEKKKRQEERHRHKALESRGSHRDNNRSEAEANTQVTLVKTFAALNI
Take `Oc1ccc(-c2nc3ccc(Cl)cn3c2NC2CCCCC2)cc1`: the IC50 is 29.7 µM. The same measure for `NS(=O)(=O)c1cccc(NS(=O)(=O)c2ccc(/C=C/C(=O)OCC(=O)c3ccc(Br)cc3)cc2)c1`: > 50 µM (inactive); for `Cc1nc2cc(NC(=O)C3CN(C(=O)c4cnccn4)C3)ccc2s1`: > 50 µM (inactive).

In the case of `O=C(Nc1ccc2c(c1)OCCO2)c1cc(CN2CCCC2)on1`, the IC50 is > 50 µM (inactive).

Take `O=C(Nc1cccc(C(F)(F)F)c1)N1CCCn2c(nc3ccccc32)C1`: the IC50 was 37.6 µM. The same measure for `Nc1nonc1C(=O)NCCNCc1cccc(OCc2ccc(Cl)cc2)c1`: > 50 µM (inactive); for `CC(C)(C)C(=O)Nc1ccc(SCc2nnc(-c3ccccc3)o2)cc1`: > 50 µM (inactive); for `CC1CCN(c2nc(F)c3c(c2F)S(=O)(=O)CCN3Cc2cccnc2)CC1`: > 50 µM (inactive). As for `O=c1c2cc([N+](=O)[O-])ccc2nc(CN2CCN(c3ccccn3)CC2)n1-c1ccccc1F`, the IC50 was > 50 µM (inactive). The same measure for `Fc1ccc(CSc2nnc(-c3ccccn3)n2Cc2ccco2)cc1`: > 50 µM (inactive); for `Cc1nnc(-c2nnc(NCc3ccc(Cl)cc3)c3ccccc23)o1`: > 50 µM (inactive); for `Cc1ccc(S(=O)(=O)N2CCC3(CC2)NC(=O)c2ccccc2N3)cc1C`: > 50 µM (inactive). The same measure for `Cn1cc2cccc(NC(=O)c3ccc(F)cc3)c2n1`: > 50 µM (inactive); for `CCc1cc(C(=O)c2ccc(OC)cc2)c(NC(=O)CN2CCCCC2)s1`: > 50 µM (inactive); for `O=C1C[C@@H]2O[C@H](CNC(=O)[C@@H]3CN(CCN3C(=O)C3CCOCC3)C(=O)[C@@H]3C[C@@H](CN3Cc3ccc(F)c(F)c3)N1)[C@@H](O)[C@H]2O`: > 50 µM (inactive).

With `CC(=O)N1CCc2cc(S(=O)(=O)NCCC(=O)Nc3cccc(C)c3C)ccc21`, the 50% inhibitory concentration (IC50) was 23.3 µM. For `O=C(CSc1nnc2n1CCCCC2)Nc1ccc2[nH]c(=O)[nH]c2c1`, the IC50 was > 50 µM (inactive). The same measure for `CN(Cc1ccccc1)S(=O)(=O)c1ccc2[nH]cc(C(=O)NCc3cccs3)c(=O)c2c1`: 3.15 µM; for `Nc1ncnc(SCc2ccc(Cl)cc2)n1`: 29.3 µM; for `N#Cc1ccccc1COC(=O)c1ccc2ccccc2n1`: > 50 µM (inactive). The same measure for `NC(=O)C1(N2CCCCC2)CCN(C(=O)c2[nH]nc3c2CCc2ccccc2-3)CC1`: > 50 µM (inactive). For the compound `O=C(CSc1ncnc2c1sc1cccc(F)c12)N1CCCCCC1`, the IC50 was > 50 µM (inactive). The same measure for `Cc1ccc(Cl)cc1NC(=O)COC(=O)c1ccc2ccccc2n1`: > 50 µM (inactive). The same measure for `CC(=O)Nc1ccc(S(=O)(=O)NCc2ccc(C(=O)NCc3ccc(C)cc3)cc2)cc1`: 25.2 µM.

As to `O=C(Cn1cc(C(=O)C2CC2)c2ccccc21)NCc1ccc2c(c1)OCO2`, the IC50 is 31.2 µM. The same measure for `Cc1cc(C(F)(F)F)n2nc(C3CCN(C(=O)c4cnn(C)c4C)C3)cc2n1` (centres undefined): > 50 µM (inactive); for `CCCc1nc2sc3c(NCCCN4CCOCC4)ncnc3c2c2c1CCC2`: > 50 µM (inactive). The same measure for `CCc1cccc(CC)c1NC(=O)COC(=O)c1cc2cccc(OC)c2oc1=O`: 27.6 µM; for `COc1cc2c(cc1OC)C(COc1ccccc1OC)N(C(=O)c1ccc3ccccc3c1)CC2` (centres undefined): > 50 µM (inactive). The same measure for `COc1cc(/C=C/C(=O)OCC(=O)Nc2ccc([N+](=O)[O-])cc2OC)ccc1O`: 24.4 µM; for `COc1ccc(CC(NC(C)=O)C(=O)NC2CCN(c3c(Cc4ccccc4)c(C)nc4ncnn34)CC2)cc1OC` (centres undefined): > 50 µM (inactive); for `CC(C(=O)Nc1ccccc1)n1cnc2nc(N3CCCCC3)ncc2c1=O` (centres undefined): > 50 µM (inactive). As for `COc1cc(OC)cc(-n2c(=O)c3sccc3n(CC(=O)Nc3ccc(C)cc3)c2=O)c1`, the IC50 was 21.1 µM. `Cc1cc(C(=O)Nc2ccc3c(c2)OCCO3)no1`: the IC50 was > 50 µM (inactive).

`O=C1CC(c2ccco2)Cc2[nH]c(=O)c(-c3nc(-c4ccc(Cl)cc4)cs3)cc21` (centres undefined): the IC50 is > 50 µM (inactive). The same measure for `O=C(NCc1ccc(-c2nc3cnccc3o2)cc1)c1ccccc1F`: 20.5 µM. The same measure for `CC1OC(CC(=O)O)CC23OC12C(=O)c1c(O)cccc1C3=O` (centres undefined): > 50 µM (inactive); for `Cc1cc(C(=O)Nc2cc(C)n(Cc3ccc(Cl)cc3)n2)no1`: > 50 µM (inactive). The same measure for `O=S(=O)(c1ccccc1)N1CCN2Cc3ccccc3N(Cc3ccccc3)CC2C1` (centres undefined): > 50 µM (inactive); for `N#Cc1ccc(NC(=O)Nc2cccn(Cc3ccccc3Br)c2=O)cc1`: > 50 µM (inactive). On to `Cn1cc(CCNC(=O)c2cc3ccccc3[nH]2)c2cccnc21`, for which the IC50 is > 50 µM (inactive).

In the case of `Cc1ccc(NC(=O)c2cnc(N3CCOCC3)nc2)cc1F`, the IC50 was > 50 µM (inactive). The same measure for `O=c1c2ccccc2oc2nc(-c3cccs3)n(-c3ccccc3)c(=O)c12`: 3.6 µM; for `O=C(NCc1ccc(Cl)cc1)c1ccc(N2CCCS2(=O)=O)cc1`: > 50 µM (inactive); for `COc1ccc(OC)c(-c2c(C#N)c(C)nc3c2N2CCC3CC2)c1`: 25 µM. The same measure for `COc1cc(NC(=O)Cc2ccccc2)ccc1NC(=O)c1cc2ccccc2o1`: 16.4 µM.

As to `CCCOc1ccc(C(=O)Nc2ccc(S(=O)(=O)Nc3cc(C)nc(C)n3)cc2)cc1`, the IC50 is > 50 µM (inactive). The same measure for `COc1cccc(CC(=O)Nc2cc(F)c3nc(N4CCOCC4)ccc3c2)c1`: > 50 µM (inactive). Consider `COc1ccc(CCN2COc3c(cc(Cl)c4cccnc34)C2)cc1OC`, for which the IC50 was 21.7 µM. The same measure for `Fc1cccc(Cn2cc(-c3noc(-c4cccnc4)n3)nn2)c1`: > 50 µM (inactive); for `O=c1[nH]c(-c2ccccn2)nc2c1CCN(Cc1cnn(-c3ccccc3)c1)C2`: > 50 µM (inactive).

Regarding `COc1ccc(C(C(=O)NCc2ccccc2)N(C(=O)CCN2CCc3ccccc32)c2ccc(C)c(C)c2)cc1` (centres undefined), the IC50 was > 50 µM (inactive).

Turning to `CCC(=O)Nc1ccccc1-c1nc2ccccc2n(CC(=O)Nc2cc(OC)ccc2OC)c1=O`, the IC50 is 19 µM. The same measure for `COc1ccccc1CNC(=O)c1ccccc1OCc1ccccc1Cl`: > 50 µM (inactive).

On to `COc1cccc(NC(=O)CCc2c(C)nn(-c3cc(N4CCCCC4)ncn3)c2C)c1`, for which the IC50 was > 50 µM (inactive). The same measure for `CCc1nc(SCC(=O)Nc2ccccc2Cl)c2oc3ccccc3c2n1`: 1.92 µM; for `CCOC(=O)c1c(C)oc2nc(CSc3ccccc3)[nH]c(=O)c12`: > 50 µM (inactive). The same measure for `CN(C)C(=O)CSc1nnc(-c2cccc(Cl)c2)n1-c1ccc(Cl)c(C(F)(F)F)c1`: > 50 µM (inactive). The same measure for `O=C(Nc1nc2c(ccc3ccccc32)s1)c1cccc(Br)c1`: 24.6 µM; for `Cc1ccc2cc(CNc3ccccc3)c(=O)n(CC(=O)Nc3ccccc3C)c2c1`: 26 µM. `CSc1cccc(C(=O)Nc2ccc(-c3nc4ccccc4[nH]3)cc2)c1`: the concentration for half-maximal inhibition (IC50) was 21.7 µM. The same measure for `CC(C)OC(=O)c1cc2c(ccn2-c2ccc(F)cc2)n1CC(=O)NC1CCCCC1`: > 50 µM (inactive); for `Cc1ccc2c(c1)[C@]1(C(=O)N2)[C@@H]2C(=O)N(c3cccc(C(F)(F)F)c3)C(=O)[C@@H]2C2CCCN21` (some centres undefined): > 50 µM (inactive). The same measure for `CC(C)(C)c1ccc(Cn2nnc3c(=O)[nH]c(C4CCN(S(=O)(=O)c5ccc(S(=O)(=O)NC6CC6)cc5)CC4)nc32)cc1`: > 50 µM (inactive); for `O=C(/C=C/c1cnc2ccccc2c1)NCc1ccccc1`: > 50 µM (inactive); for `Cc1cc(C)cc(-n2cnc3cc(C(=O)NCCC4=CCCCC4)ccc32)c1`: > 50 µM (inactive). The same measure for `O=C(Cn1c(=O)n(CC(=O)NC2CCCC2)c(=O)c2ccccc21)Nc1cc(Cl)ccc1Cl`: 12.1 µM; for `Cc1cccc(C(=O)Nc2ccc3c(c2)nc(CSc2nccc(C)n2)n3C)c1`: > 50 µM (inactive). As to `O=C(Cn1ccc2ccc(N3CCOCC3)nc21)NCc1ccccc1F`, the IC50 was > 50 µM (inactive).

As for `O=C(CCc1nnc2n(Cc3ccc(F)cc3)c(=O)c3ccccc3n12)N1CCN(c2ccccn2)CC1`, the IC50 was > 50 µM (inactive).

With `O=C1C[C@@H](O)[C@H](O)[C@@]23O[C@@]12C1(Oc2cccc4cccc(c24)O1)[C@@H]1O[C@@H]1[C@@H]3O`, the IC50 was 41.3 µM. In the case of `Cc1ccc(C(=O)NCC(=O)Nc2nc3ccccc3[nH]2)c(C)c1`, the IC50 was 35.3 µM. The same measure for `CCOc1ccc(C(=O)Cn2c(=O)n(CC3CCCO3)c(=O)c3cc(OC)c(OC)cc32)cc1Cl` (centres undefined): 45.1 µM; for `Cc1ccc(NC(=O)c2nnn(-c3ccccc3)n2)cc1F`: > 50 µM (inactive); for `c1csc(-c2nc(Nc3ccc4c(c3)CCC4)c3ccccc3n2)c1`: > 50 µM (inactive). The same measure for `COc1ccc(NC(=O)CSc2nnc(Cc3cccc4ccccc34)n2C)cc1`: > 50 µM (inactive); for `O=C1N[C@@H](Cc2ccccc2)C(=O)N2[C@H]3Nc4ccccc4[C@@]3([C@]34C[C@H]5C(=O)N[C@@H](Cc6ccccc6)C(=O)N5[C@H]3Nc3ccccc34)C[C@@H]12`: 47.6 µM.

With `CC1=CN2C(=N)/C(=C/c3cn(Cc4ccc(Cl)cc4)c4ccccc34)C(=O)N=C2S1`, the IC50 was > 50 µM (inactive). The same measure for `Cc1nn(C)c2c1[C@@H](c1ccc(F)cc1)[C@H](NC(=O)c1ccccc1)C(=O)N2`: > 50 µM (inactive); for `O=C(NCCN1CCCC1)C1CCN(c2cnc(N3CCCCC3)nc2)CC1`: > 50 µM (inactive). The same measure for `CC(=O)N1CCc2cc(S(=O)(=O)NCc3ccc(C)cc3)ccc21`: > 50 µM (inactive); for `COc1cc(OC)c2c(c1)C(=O)C1=C(COC(C)(O)C1)C2=O` (centres undefined): > 50 µM (inactive); for `CN(C)c1cccc(C(=O)Nc2cc(-c3cccnc3)no2)c1`: 35.8 µM. The same measure for `Cn1ccc2c(cc(C(=O)NCCC3=CCCCC3)n2C)c1=O`: > 50 µM (inactive).

Values taken from PubChem BioAssay AID1645868 (Buhrlage Lab, Dana-Farber Cancer Institute and Novartis …, 2021).
